The record followed here is patent publication EP0760375A1, “ANTITUMOR INDOLOPYPROLOCARBAZOLE DERIVATIVE” (BANYU PHARMACEUTICAL CO., LTD., priority 1994, dated 1995).

Assay [1] has as its system human gastric cancer cells (MKN-45). Description: Growth-inhibiting activity (CTX) against cancer cells, Thiazoyl Blue assay. The class given is cell-based. The following applies: MKN-45 cells, 72 hours incubation with test compound, absorbance at 560 nm. How it is done:
(§1) 50 µl of a cell culture medium (RPMI-1640 medium containing 10% bovine fetal serum) containing 1 x 10^3 mouse leukemia cells (P388), human gastric cancer cells (MKN-45), human pulmonary cancer cells (PC-13) or human rectal cancer cells (DLD-1) was pipetted into the wells of a 96-well microplate, and incubated at 37°C under 5% CO2 for 24 hours. Then, 50 µl of a test solution containing each test compound was added, and the culture medium was further incubated at 37°C under 5% CO2 for 72 hours. After 10 µl of 0.5% Thiazoyl Blue was added to the culture medium, an enzyme reaction was carried out by incubating the culture medium at 37°C under 5% CO2 for 2 hours. After the reaction was stopped by the addition of 20% sodium dodecyl sulfate (SDS), the culture medium was further incubated at 37°C for 16 hours to dissolve the pigment so formed. Then, the absorbances at 560 nm were measured and compared with that obtained in a control group. The compound of the formula [drawing 7] was used as the control compound.

Assay [2] concerns human pulmonary cancer cells (PC-13). The assay is described as above. The class given is cell-based. The following applies: PC-13 cells, 72 hours incubation with test compound, absorbance at 560 nm. How it is done: as §1
Assay [3] concerns human rectal cancer cells (DLD-1). The description is as above. The format is cell-based. The following applies: DLD-1 cells, 72 hours incubation with test compound, absorbance at 560 nm. How it is done:
as §1

The test system of assay [4] is mouse leukemia cells (P388). The assay is described as above. The class given is cell-based. The following applies: 72 hours incubation with test compound, absorbance at 560 nm. How it is done: as §1
Assay [5] relates to human gastric cancer MKN-45. Put plainly: Effect on human gastric cancer MKN-45 solid tumor transplanted under the skin of mice. The following applies: Mus musculus, MKN-45, iv, total dose at which tumor growth was inhibited by 75%, injection into the caudal vein, read-out: GID75 (mg/kg total). The class given is in vivo. How it is done: A MKN-45 solid tumor which had previously been grown by transplantation under the skin of a nude mouse was minced, and 3 mm cubes of the tumor were transplanted under the skin of mice used for this test. Starting from the time when the transplanted tumor grew to 0.3 cm^3, a treatment was carried out by injecting a dose of each test drug into the caudal vein of the mice, once a day, for 5 consecutive days and, after two days' pause, injecting the test drug for 5 days (treatment schedule: 5/w x 2) or four times at intervals of 3 or 4 days (treatment schedule: 2/w x 2). Twenty or thirty-two days after the start of the treatment, the larger diameter (L) and smaller diameter (W) of the tumor were measured, and its volume (V) was determined ( […] [formula] ). The degree of tumor growth inhibition was calculated from this volume, and the total dose at which the tumor growth was inhibited by 75% (GID75, mg/kg) was determined.

Like-named read-outs stand apart in the source and are kept apart here.

Consider `O=CNN1C(=O)c2c(c3c4cccc(O)c4n([C@@H]4O[C@H](CO)[C@@H](O)[C@H](O)[C@H]4O)c3c3[nH]c4c(O)cccc4c23)C1=O` [Control compound, reference compound], for which the half-inhibitory concentration (IC50) in assay [1] was 0.5 µM; in assay [2] it was 1.4 µM; in assay [3] it was 73 µM; in assay [4], 0.12 µM. In assay [5] (treatment schedule 5/w x 2), the ED75 was found to be 170 mg/kg.
Regarding `O=C1c2c(c3c4ccc(O)cc4n([C@@H]4O[C@H](CO)[C@@H](O)[C@H](O)[C@H]4O)c3c3[nH]c4cc(O)ccc4c23)C(=O)N1NC(CO)CO` [Compound [I-B]], the IC50 in assay [1] worked out at 0.011 µM; in assay [2] it was 0.035 µM; in assay [3] it was 0.1 µM; in assay [4], 0.002 µM. Further, the ED75 in assay [5] (treatment schedule 2/w x 2) was determined as 3 mg/kg.
For `O=C1c2c(c3c4cccc(O)c4n([C@@H]4O[C@H](CO)[C@@H](O)[C@H](O)[C@H]4O)c3c3[nH]c4c(O)cccc4c23)C(=O)N1NC(CO)CO` [Compound [I-A]], the IC50 in assay [1] amounted to 0.29 µM; in assay [2], 0.34 µM; in assay [3], 0.67 µM; in assay [4] it was 0.037 µM. Also, the ED75 in assay [5] (treatment schedule 5/w x 2) came to 27 mg/kg.
